From patent US20180203025A1, “HDL THERAPY MARKERS” (Cerenis Therapeutics Holding SA, priority 2014, published 2018) come the findings set out here.

Data set [1] has as its system LXR mRNA in mouse macrophages (J774). Briefly: LXR gene expression (real-time PCR) in J774 macrophages. It is filed as cell-based. The settings on record: Study P; 0.03 to 30 mM; 6 hours. As to the method: The mRNA regulation of those genes expressing ABCA1, ABCG1 and SR-BI is linked to nuclear proteins as LXR, SREBP1 and SREBP2. […] Gene expression was assayed using the protocols described in Sections 8.3.2 (RNA extraction); 8.3.4 (reverse transcription), and 8.3.5 (qPCR). SREBP-1, SREBP-2 and LXR gene expression levels were determined with Taqman probe (Mm01138344.m1, Mm01306292.m1, Mm00443451.m1 respectively) according to the manufacturer's protocol. The reference gene used is HPRT1 (Taqman probe: Mm00446968.m1).
This study used β-cyclodextrin to examine the effect of β-cyclodextrin on LXR, SREBP1 and SREBP2 mRNA expression in J774 macrophages. J774 were seeded on 6 well plates (300,000 cells/well). β-cyclodextrin (0.03, 0.1, 0.3, 1, 3, 10 and 30 mM) was added for 6 hours on the macrophages and the RNA were extracted with the RiboPure™ kit according to the manufacturer's protocol. Gene expression was assayed using the protocols described in Sections 8.3.2 (RNA extraction); 8.3.4 (reverse transcription), and 8.3.5 (qPCR). SREBP-1, SREBP-2 and LXR gene expression were determined with Taqman probe (Mm01138344.m1, Mm01306292.m1, Mm00443451.m1 respectively) according to the manufacturer's protocol. The reference gene used is HPRT1 (Taqman probe: Mm00446968.m1).
Background: In qPCR the cycle at which signal appears reflects the starting amount.

Data set [2] is described as follows: Cholesterol content in mouse feces. It is filed as in vivo. As to the method:
The left and right carotids, the liver, the spleen and the aortas connected to the heart were removed and stored at −80° C. The liver was collected in four different aliquots. The remaining biological specimens were discarded after the organ collection. For feces collection, the day of the last injection for each group, the cage was changed with a new litter and feces were collected for 24 hours (day of sacrifice).
Feces were lipid extracted and analyzed by HPLC for their cholesterol content. Feces (200 mg) were solubilized in methanol:water (50:50) solution and mixed for 1 minute with Turrax®. The solution was frozen and lyophilized overnight. The following day, 4 mL of chloroform/methanol (2:1) was added and the solution was mixed for 24 hours at 4° C. To this was added water (1.33 mL), and the solution was then mixed and centrifuged for three minutes at 3700×g. The organic phase was saved and dried. The pellet was solubilized in absolute ethanol (2 mL), and filtered on cartridge AC 0.2 μm. The cholesterol concentration in the sample was analyzed according to the method of Section 9.2.7.

The nature of data set [3]: CHI SQUARE plasma ApoA-I, phospholipid and total cholesterol after infusion. Format: in vivo, human. The source says: 504 subjects presenting with acute chest pain or other angina equivalent symptoms, indicative of a diagnosis of ST segment elevation myocardial infarction, non-ST elevation myocardial infarction or unstable angina were enrolled. To be eligible, subjects must have angiographic evidence of coronary artery disease as defined by at least one lesion in any of the three major native coronary arteries that has >20% reduction in lumen diameter by angiographic visual estimation or prior history of percutaneous coronary intervention (“PCI”). The target vessel for PCI was not the target coronary artery for research IVUS, and any vessel with previous PCI could not be used as the target coronary artery.

In another data set the test system is SR-BI in mouse liver. Nature of the data set: SR-BI protein content in mouse liver. Format: in vivo. The settings on record: 24 hours after the last injection; increasing concentrations. The protocol:
This study examined the SR-BI and ABCA1 protein content in the liver 24 hours after the last injection of CER-001. A piece of liver (50 mg) was lysed in PBS (500 μL) by brief sonication. The sample was centrifuged (800×g for 10 minutes) and the pellet was discarded. The supernatant was centrifuged for 30 minutes at 16,000×g at 4° C. and the pellet was solubilized with PBS 1% Triton X100 (200 μL). 10 μg of solubilized pellet was loaded on SDS PAGE 10% and ABCA1 expression (ab7360—dilution 1/1000) or SR-BI expression (ab24603—dilution 1/1000) was quantified using imageJ® software.

The subject of data set [4] is ABCA1 protein in J774 macrophages. Briefly: ABCA1 protein level in J774 macrophages (SDS PAGE, anti-ABCA1). Format: cell-based, mouse. The conditions noted are these: Study H; 250 μg/mL, 6 hours.
[5] abbreviates: Infusion 1, preserved at Infusion 6.

With `OC[C@H]1O[C@@H]2O[C@H]3[C@H](O)[C@@H](O)[C@@H](O[C@H]4[C@H](O)[C@@H](O)[C@@H](O[C@H]5[C@H](O)[C@@H](O)[C@@H](O[C@H]6[C@H](O)[C@@H](O)[C@@H](O[C@H]7[C@H](O)[C@@H](O)[C@@H](O[C@H]8[C@H](O)[C@@H](O)[C@@H](O[C@H]1[C@H](O)[C@H]2O)O[C@@H]8CO)O[C@@H]7CO)O[C@@H]6CO)O[C@@H]5CO)O[C@@H]4CO)O[C@@H]3CO` [β-cyclodextrin, reference compound], the “LXR mRNA” value in data set [1] was “No significant changes”.

On to “CER-001: engineered recombinant human apolipoprotein A-I HDL with sphingomyelin and DPPG; protein-to-phospholipid ratio 1:2.7, 97% Sph and 3% DPPG”, for which the feces cholesterol content result in data set [2] (feces collected 24 hours after last injection) is recorded as “dose-dependent increase”. Moreover, the “concentration of maximum cholesterol excretion” value in data set [2] (mouse, in vivo) was 10 mg/kg. For the same molecule, in data set [3] (CER-001 at 3 mg/kg), the “potency (plasma total cholesterol increase) relative to ETC-216” value was “comparable to ETC-216 at 15 mg/kg”. Moreover, in data set [3] (setting [5]), the “plasma apolipoprotein A-I after IV administration” value is “increases in a dose-dependent manner”, the “plasma phospholipids after IV administration” value is given as “increase in a dose dependent manner” and the “plasma total cholesterol after IV administration” value is listed as “increases in a dose-dependent manner”. Also, the “slope ratio of phospholipids and ApoA-I dose response curves” value in data set [3] (in vivo) was determined as 2.8. For the same molecule, the “liver SR-BI protein level” value with SR-BI in mouse liver is recorded as “no significant changes”. For the same molecule, the ABCA1 protein level result in data set [4] was “significant decrease of ABCA1 protein level”.
